Drawing on CN111517978A, “环己烯基-dl-天门冬氨酸衍生物及其制备方法、组合物与用途” (Zhongshan Wanhan Pharmaceutical Co ltd, priority 2020, dated 2020), this text covers MIC_A for 15 compounds.

Holding throughout (type): cell-based
What all share (conditions): component A (XP or YS) alone

Test [1] concerns Propionibacterium acnes ATCC11828 (痤疮丙酸杆菌ATCC11828). The experiment in a line: Antibacterial action (MIC, FICI) against Propionibacterium acnes ATCC11828 (Table 21).
In test [2] the test system is Bacteroides fragilis ATCC25285 (脆弱拟杆菌ATCC25285). The test can be described thus: Antibacterial action (MIC, FICI) against Bacteroides fragilis ATCC25285 (Table 26).
The subject of test [3] is Shigella flexneri 2aEW-10 (福氏志贺氏菌2aEW-10). The experiment in a line: Antibacterial action (MIC, FICI) against Shigella flexneri 2aEW-10 (Table 15).
The subject of test [4] is Providencia stuartii 57 (斯氏普罗威登斯菌57). The experiment in a line: Antibacterial action (MIC, FICI) against Providencia stuartii 57 (Table 12).
The test system of test [5] is Micrococcus lysodeikticus 2665 (溶壁微球菌2665). The experiment in a line: Antibacterial action (MIC, FICI) against Micrococcus lysodeikticus 2665 (Table 4).
Test [6] has as its system Streptococcus intermedius ATCC27335 (中间链球菌ATCC27335). The test can be described thus: Antibacterial action (MIC, FICI) against Streptococcus intermedius ATCC27335 (Table 20).
Test [7] deals with Serratia marcescens IFO 3736 (黏质沙雷氏菌IFO 3736). The test can be described thus: Antibacterial action (MIC, FICI) against Serratia marcescens IFO 3736 (Table 10).
For test [8], the system named is Escherichia coli ATCC25922 (大肠杆菌ATCC25922). The test can be described thus: Antibacterial action (MIC, FICI) against Escherichia coli ATCC25922 (Table 7).
The subject of test [9] is Stenotrophomonas maltophilia NCTC 13637 (嗜麦芽窄食单胞菌NCTC 13637). The experiment in a line: Antibacterial action (MIC, FICI) against Stenotrophomonas maltophilia NCTC 13637 (Table 18).
Test [10] has as its system Clostridium perfringens ATCC13124 (产气荚膜梭状芽孢杆菌ATCC13124).
In test [11] the test system is Klebsiella pneumoniae NCTC 9632 (肺炎克雷伯菌NCTC 9632). The test can be described thus: Antibacterial action (MIC, FICI) against Klebsiella pneumoniae NCTC 9632 (Table 9).

As to `CCC(CC)O[C@@H]1C=C(C(=O)O)C[C@H](NC(CC(=O)O)C(=O)O)[C@H]1NC(C)=O` (mixture of isomers) [化合物10P, ((1S,5R,6R)-6-乙酰氨基-3-羧基-5-(戊-3-基氧基)环己-3-烯-1-基)-DL-天门冬氨酸], the MIC_A stood at 35 ng/mL in test [1], 6 ng/mL in test [2] and 25 ng/mL in [3].
In the case of `CCOC(=O)C1=C[C@@H](OC(CC)CC)[C@H](NC(C)=O)[C@H](NC(CC(=O)O)C(=O)O)C1` (mixture of isomers) [化合物9P, ((1R,5R,6R)-6-乙酰氨基-3-(乙氧基羰基)-5-(戊-3-基氧基)环己-3-烯-1-基)-DL-天门冬氨酸], the MIC_A in test [4] is listed as 29 ng/mL; in [5], 18 ng/mL; in test [6] it was 9 ng/mL; in [7] it was 49 ng/mL; in test [2], 16 ng/mL.
Consider `CCOC(=O)C1=C[C@H](OC(CC)CC)[C@H](N)[C@@H](NC(C)=O)C1` [化合物18S, 乙基(3S,4R,5S)-5-乙酰氨基-4-氨基-3-(戊-3-基氧基)环己-1-烯-1-羧酸酯], for which the MIC_A in [4] came to 959 ng/mL; in test [5], 418 ng/mL; in test [6] it was 1137 ng/mL; in [7] it was 992 ng/mL; in [2], 305 ng/mL.
For `CCOC(=O)C1=C[C@H](OC(CC)CC)[C@@H](N)[C@H](NC(CC(=O)O)C(=O)O)C1` (mixture of isomers) [化合物17P, ((1R,5S,6S)-6-氨基-3-(乙氧基羰基)-5-(戊-3-基氧基)环己-3-烯-1-基)-DL-天门冬氨酸], the MIC_A in test [8] is on record as 22 ng/mL; in [9], 16 ng/mL; in test [1] it was 27 ng/mL; in [10], 21 ng/mL; in [3] it was 30 ng/mL.
On to `CC(=O)N[C@H]1[C@H](O)C=C(C(=O)O)C[C@@H]1N` [化合物15S, (3R,4R,5S)-4-乙酰氨基-5-氨基-3-羟基环己-1-烯-1-羧酸], for which the MIC_A in test [8] came to 354 ng/mL; in test [9] it was 1138 ng/mL; in [10], 681 ng/mL; in test [2] it was 730 ng/mL; in test [3] it was 303 ng/mL.
With `CCOC(=O)C1=C[C@@H](OC(CC)CC)[C@H](NC(C)=O)[C@H](N)C1` [化合物9S, 乙基(3R,4R,5R)-4-乙酰氨基-5-氨基-3-(戊-3-基氧基)环己-1-烯-1-羧酸酯], the MIC_A amounted to 440 ng/mL in [4]; 462 ng/mL in [5]; 410 ng/mL in test [6]; 864 ng/mL in test [7]; 316 ng/mL in [2].
On to `CCC(CC)O[C@@H]1C=C(C(=O)OC)C[C@H](NC(CC(=O)O)C(=O)O)[C@H]1NC(C)=O` (mixture of isomers) [化合物3P, ((1S,5R,6R)-6-乙酰氨基-3-(甲氧基羰基)-5-(戊-3-基氧基)环己-3-烯-1-基)-DL-天门冬氨酸], for which the values for the MIC_A in [7], in test [2] and in [11] were 11 ng/mL, 11 ng/mL and 22 ng/mL, respectively.
In the case of `CCOC(=O)C1=C[C@@H](OC(CC)CC)[C@H](NC(CC(=O)O)C(=O)O)[C@@H](N=[N+]=[N-])C1` (mixture of isomers) [化合物21P, ((1R,2R,6S)-6-叠氮基-4-(乙氧基羰基)-2-(戊-3-基氧基)环己-3-烯-1-基)-DL-天门冬氨酸], the MIC_A came to 13 ng/mL in [5]; 56 ng/mL in [10]; 13 ng/mL in test [2]; 15 ng/mL in test [11]; 17 ng/mL in test [3].
On to `CCOC(=O)C1=C[C@H](OC(CC)CC)[C@H](NC(CC(=O)O)C(=O)O)[C@@H](NC(C)=O)C1` (mixture of isomers) [化合物18P, ((1R,2S,6S)-6-乙酰氨基-4-(乙氧基羰基)-2-(戊-3-基氧基)环己-3-烯-1-基)-DL-天门冬氨酸], for which the MIC_A amounted to 22 ng/mL in test [4]; 6 ng/mL in test [5]; 27 ng/mL in [6]; 53 ng/mL in test [7]; 17 ng/mL in [2].
Regarding `CCOC(=O)C1=C[C@@H](OC(CC)CC)[C@@H](NC(C)=O)[C@H](NC(CC(=O)O)C(=O)O)C1` (mixture of isomers) [化合物5P, ((1R,5R,6S)-6-乙酰氨基-3-(乙氧基羰基)-5-(戊-3-基氧基)环己-3-烯-1-基)-DL-天门冬氨酸], the MIC_A in test [1] is recorded as 15 ng/mL; in test [2] it was 20 ng/mL; in test [11] it was 17 ng/mL; in [3] it was 24 ng/mL.
As for `CC(=O)N[C@H]1[C@H](O)C=C(C(=O)O)C[C@@H]1NC(CC(=O)O)C(=O)O` (mixture of isomers) [化合物15P, ((1S,5R,6R)-6-乙酰氨基-3-羧基-5-羟基环己-3-烯-1-基)-DL-天门冬氨酸], the MIC_A stood at 15 ng/mL in test [8]; 24 ng/mL in [9]; 47 ng/mL in [10]; 24 ng/mL in test [2]; 3 ng/mL in [3].
With `CCOC(=O)C1=C[C@@H](OC(CC)CC)[C@H](N)[C@@H](N=[N+]=[N-])C1` [化合物21S, 乙基(3R,4R,5S)-4-氨基-5-叠氮基-3-(戊-3-基氧基)环己-1-烯-1-羧酸酯], the MIC_A in [5] stood at 407 ng/mL; in test [10] it was 884 ng/mL; in test [2], 375 ng/mL; in test [11], 613 ng/mL; in test [3], 533 ng/mL.
`CCOC(=O)C1=C[C@@H](OC(CC)CC)[C@@H](NC(C)=O)[C@H](N)C1` [化合物5S, 乙基(3R,4S,5R)-4-乙酰氨基-5-氨基-3-(戊-3-基氧基)环己-1-烯-1-羧酸酯]: the MIC_A was determined as 919 ng/mL in [1], 323 ng/mL in [2], 507 ng/mL in [11] and 483 ng/mL in test [3].
Turning to `CCC(CC)O[C@@H]1C=C(C(=O)O)C[C@H](N)[C@H]1NC(C)=O` [化合物10S, (3R,4R,5S)-4-乙酰氨基-5-氨基-3-(戊-3-基氧基)环己-1-烯-1-羧酸], the results for the MIC_A in test [1], in test [2] and in test [3] were 737 ng/mL, 484 ng/mL and 671 ng/mL, respectively.
Turning to `CCC(CC)O[C@@H]1C=C(C(=O)OC)C[C@H](N)[C@H]1NC(C)=O` [化合物3S, 甲基(3R,4R,5S)-4-乙酰氨基-5-氨基-3-(戊-3-基氧基)环己-1-烯-1-羧酸酯], the MIC_A is listed as 456 ng/mL in [7], 362 ng/mL in test [2] and 424 ng/mL in test [11].
